Key:
[1] = Interimage in bilayer format: IDIR-2 in blue layer, IEM in green layer; conditions: for Cg /Cb+g (interimage): IEM or CIEM in green layer at 7.2×10^-3 mmol/m^2, higher ratio = more interimage, no-IEM check; for Relative Speed (green layer): IEM or CIEM in green layer, speed point +0.15 density above Dmin, normalized to check
Procedure: Bilayer photographic elements were prepared by coating the following layers on a cellulose triacetate film support (coverages are in g/m^2). Unless otherwise noted, all comparative and inventive compounds were dispersed in twice their own weight of N,N-dibutyllauramide: […] Layer 3 (Interlayer): gelatin at 0.64, ILS-1 at 0.11 and FD-1 at 0.11. […] Layer 5 (Overcoat): gelatin at 2.79 and 0.02 bis-vinylsulfonemethylether. […] Contrast of the elements was determined using the maximum slope between any two density points. In this test, the ratio of the contrast of the green only exposure to the contrast of the green of a blue and green exposure (Cg /Cb+g) is a measure of the interimage. A higher ratio means more inhibition originating from the blue and affecting the green record. Relative speed of the green layer was determined by measuring the speed point +0.15 density units above Dmin and normalizing to the check position.

[2] = Contrast (gamma) reduction by DI(A)R in single layer film element, C-41 process; conditions: DIR at 0.055 mmol/m^2, relative to non-inhibitor containing check; KODAK FLEXICOLOR (C-41)
Excerpt: The mild inhibitor fragments that are used in this invention are defined as those that cause less than a 45% gamma reduction, or more preferably less than a 40% gamma reduction, relative to a non-inhibitor containing check when coated as the following single layer film element on a cellulose triacetate film support (coverages are in g/m^2): […]
Overcoat Gelatin at 2.79 and 0.02 bis-vinylsulfonemethylether
Imaging Layer Gelatin at 2.79
Magenta Image Coupler M-1 (dispersed at 80% by
weight in tricresyl phosphate and 20% by weight
N,N-dibutyl-2-butoxy-5-t-octylaniline) at 0.692
DIR being tested at 0.055 mmol/m^2 (dispersed in twice
its weight in N,N-dibutyllauramide)
Green sensitized AgBrI at 1.08
Samples of each element were given a stepped exposure and processed in the KODAK FLEXICOLOR (C-41) process as described in British Journal of Photography Annual, 1988, pp 196-198. Contrast of the elements was determined using the maximum slope between any two density points.

[3] = Interimage in multilayer format (density change of receiver record); conditions: Table IV; IEM in green layer
Excerpt: Multilayer Film Example ML-1:
Layer 1 (Antihalation layer): black collodial silver sol at 0.135; ILS-1 at 0.162,
Layer 2 (Slow cyan layer): a blend of two red sensitized (both with a mixture of RSD-1 and RSD-2) tabular silver iodobromide emulsions: (i) 0.66×0.12, 4.1 mole % I at 0.302 (ii) 0.55×0.08, 1.5 mole % I at 0.464; cyan dye-forming coupler C-1 at 0.535; DIR coupler CDIR-1 at 0.027; bleach accelerator releasing coupler B-1 at 0.057; masking coupler MC-1 at 0.032; and gelatin at 1.68.
Layer 3 (Mid cyan layer): a blend of two red sensitized (same as above) tabular silver iodobromide emulsions: (i) […], 4.1 mole % I at 0.194 (ii) 1.07×0.11, 4.1 mole % I at 0.238; cyan coupler C-1 at 0.171; CDIR-1 at 0.019; MC-1 at 0.032; B-1 at 0.008; and gelatin at 1.08.
Layer 4 (Fast cyan layer): a red sensitized (same as above) tabular silver iodobromide emulsion (1.33×0.12, 4.1 mole % I) at 0.594; C-1 at 0.184; CDIR-1 at 0.027; MC-1 at 0.022; and gelatin at 0.918.
Layer 5 (Interlayer): ILS-1 at 0.086 and gelatin at 0.540.
Layer 6 (Slow magenta layer): a blend of two green sensitized (both with a mixture of GSD-1 and GSD-2) silver iodobromide emulsions: (i) 0.81×0.12, 2.6 mole % iodide at 0.346 and (ii) 0.55×0.08, 1.5 mole % iodide at 0.130; magenta dye forming coupler M-1 at 0.270; MC-2 at 0.086; IDIR-5 at 0.011; and gelatin at 1.08.
Layer 7 (Mid magenta layer): a blend of two green sensitized (same as above) tabular silver iodobromide emulsions (i) 1.22×0.11, 4.1 mole % I at 0.248 and (ii) 1.07×0.11, 4.1 mole % I at 0.248; M-1 at 0.124; MC-2 at 0.119; IDIR-5 at 0.043; OxDS-2 at 0.016; and gelatin at 1.22.
Layer 8 (Fast magenta layer): a green sensitized tabular silver iodobromide (1.33×0.12, 4.1 mole % I) emulsion at 0.486; M-1 at 0.076; MC-2 at 0.054; B-1 at 0.003; IDIR-5 at 0.015; OxDS-2 at 0.009; and gelatin at 1.02.
Layer 9 (Yellow filter layer): yellow filter dye FD-1 at 0.054; ILS-1 at 0.086; and gelatin at 0.648.
Layer 10 (Slow yellow layer): a blend of three blue sensitized (all with a mixture of BSD-1 and BSD-2) tabular silver iodobromide emulsions (i) 0.55×0.08, 1.5 mole % I at 0.270 (ii) […], 1.5 mole % I at 0.248 and (iii) 1.25×0.14, 4.1 mole % I at 0.400; yellow dye forming coupler Y-2 at 1.08; IDIR-6 at 0.076; CDIR-1 at 0.032; B-1 at 0.022; and gelatin at 1.879.
Layer 11 (Fast yellow layer): a blend of two blue sensitized (both with a mixture of BSD-1 and BSD-2) tabular silver iodobromide emulsions (i) 1.25×0.14, 4.1 mole % I at 0.108 (ii) 2.67×0.13, 4.1 mole % I at 0.378; Y-2 at 0.238; IDIR-6 at 0.076; B-1 at 0.005; and gelatin at 0.810.
Layer 12 (Protective overcoat and UV filter layer): silver bromide Lippman emulsion at 0.216; UV-1 at a total of 0.108; gelatin at 1.242 and bis(vinylsulfonyl)methane hardener at 1.75% of total gelatin weight.
Surfactants, coating aids, emulsion addenda, sequestrants, thickeners, lubricants, matte and tinting dyes were added to the appropriate layers as is common in the art. […]
These multilayer coatings were given a stepped exposure in one color record but only flashed (non-imagewise exposure) in the other two records and processed as described for the bilayer experiments. To monitor interimage, a step nearest to density of 1.5 in the stepped color record (the causer) was chosen, and the difference in density of the other color records (the receivers) at that step and at the no exposure step of the causer was determined. […]

Row | Structure (SMILES) | Cg /Cb+g (interimage) [1] | Relative Speed (green layer) [1] | % Contrast Reduction [2] | interimage, in words [3]
1 | CCCCCCCCOC(=O)CSCCn1nn[nH]c1=S [IEM-6] | 1.31 | 0.99 |  | 
2 | CCCCCCCCCCCCCCOc1ccccc1NC(=O)c1cc(Oc2ccc(CSc3nnnn3Cc3ccc(OC)cc3)cc2[N+](=O)[O-])c2ccccc2c1O [CDIR-1] |  |  | -55.4% | Interimage is not increased
3 | CCCOC(=O)Cn1nnnc1SC1C(=O)N(c2ccc(NC(=O)C(CC)Oc3ccc(C(C)(C)CC)cc3C(C)(C)CC)cc2)N=C1N1CCCC1 (centres unmarked) [IDIR-4] |  |  | -22.6% | 
4 | CCCCCCCCCCC(Oc1ccc(S(=O)(=O)c2ccc(O)cc2)cc1)C(=O)Nc1ccc(N2N=C(C)C(n3nc(C)c(C(=O)OCCCCCC)n3)C2=O)cc1 (centres unmarked) [CDIR-9] |  |  | -50.1% | 
5 | CCCCCCCOC(=O)C(CCC)n1nn[nH]c1=S (centres unmarked) [IEM-8] | 2.02 | 0.91 |  | 
6 | CCCCCCCCCCCCCCOc1ccccc1NC(=O)c1cc(Oc2ccc([N+](=O)[O-])cc2CN(C(=O)Sc2nnnn2-c2ccccc2)C(C)C)c2ccccc2c1O [CDIR-3] |  |  | -75.7% | 
7 | CCCCCCCC(=O)Nc1cccc(-n2nn[nH]c2=S)c1 [IEM-10] | 1.96 | 0.91 |  | 
8 | O=C(O)Cn1nn[nH]c1=S [CIEM-3] | 1.23 | 0.99 |  | 
9 | O=C(O)c1ccc(-n2nn[nH]c2=S)cc1 [CIEM-9] | 1.21 | 1.00 |  | 
10 | CCCCCC(=O)Nc1cccc(-n2nn[nH]c2=S)c1 [IEM-9] | 2.20 | 0.91 |  | 
11 | CCCCCCCCCOC(=O)C(CCSC)n1nn[nH]c1=S (centres unmarked) [IEM-5] | 1.39 | 0.96 |  | 
12 | CCC(C)OC(=O)C(CCSC)n1nn[nH]c1=S (centres unmarked) [CIEM-6] | 1.72 | 0.90 |  | 
13 | CCCCCCCCCCCCCCCCS(=O)(=O)Nc1ccc(Cl)c(NC(=O)C(C(=O)C(C)(C)C)n2nc(C)c(C(=O)OCCCCCC)n2)c1 (centres unmarked) [CDIR-10] |  |  | -53.8% | 
14 | CCCCCCCCCCCCCCOc1ccccc1NC(=O)c1cc(Oc2ccc(CSc3nnnn3-c3ccccc3)cc2[N+](=O)[O-])c2ccccc2c1O [CDIR-5] |  |  | -70.5% | 
15 | CCCCCCOC(=O)c1nn(C2C(=O)N(c3ccc(NC(=O)C(CC)Oc4ccc(C(C)(C)CC)cc4C(C)(C)CC)cc3)N=C2C)nc1C (centres unmarked) [CDIR-8] |  |  | -49.2% | 
16 | CCCCCCCCCCCCCCCCS(=O)(=O)Nc1ccc(Cl)c(NC(=O)C(Oc2ccc([N+](=O)[O-])cc2CN(CC)C(=O)Sc2nnnn2CC(=O)OCCC)C(=O)C(C)(C)C)c1 (centres unmarked) [IDIR-2] |  |  | -25.3% | 
17 | CCC(Oc1ccc(C(C)(C)CC)cc1C(C)(C)CC)C(=O)Nc1ccc(N2N=C(N3CCCC3)C(Sc3nnnn3-c3ccccc3)C2=O)cc1 (centres unmarked) [CDIR-2] |  |  | -67.1% | 

Row | Structure (SMILES) | Cg /Cb+g (interimage) [1] | Relative Speed (green layer) [1] | % Contrast Reduction [2] | interimage, in words [3]
18 | S=c1[nH]nnn1-c1ccccc1 [CIEM-2] | 1.44 | 0.91 |  | 
19 | CCCCCCCCCCCCOc1ccc(C)cc1NC(=O)c1cc(Oc2ccc(CSc3nnnn3CC(=O)OCCC)cc2[N+](=O)[O-])c2ccccc2c1O [IDIR-3] |  |  | -24.5% | 
20 | CSCC(=O)Nc1cccc(-n2nn[nH]c2=S)c1 [CIEM-8] | 1.47 | 0.92 |  | 
21 | CCn1nn[nH]c1=S [CIEM-4] | 1.22 | 1.00 |  | 
22 | CCCCCCCCCCCCCCOc1ccccc1NC(=O)c1cc(Sc2nnnn2CC)c2ccccc2c1O [IDIR-8] |  |  | -2.4% | 
23 | CCCCCCCCCCCCCCOc1ccccc1NC(=O)c1cc(Sc2nnnn2-c2ccccc2)c2ccccc2c1O [CDIR-6] |  |  | -75.4% | 
24 | CCCCCCCCCCCCCCOc1ccccc1NC(=O)c1cc(Oc2ccc(CSc3nnnn3-c3ccccc3)cc2[N+](=O)[O-])c2ccccc2c1O [CDIR-4] |  |  | -77.1% | 
25 | CCCCCCCCCCCCCCCCS(=O)(=O)Nc1ccc(Cl)c(NC(=O)C(C(=O)C(C)(C)C)n2ncc(SCC(=O)OCCCCCC)n2)c1 (centres unmarked) [CDIR-11] |  |  | -58.6% | 
26 | CCCCCCCCCCC(=O)Nc1cccc(-n2nn[nH]c2=S)c1 [IEM-11] | 1.29 | 0.99 |  | 
27 | O=C(CSCCn1nn[nH]c1=S)OC1CCCCC1 [IEM-3] | 1.85 | 0.91 |  | 
28 | CCCCCCCCCCCCCCCCS(=O)(=O)Nc1ccc(Cl)c(NC(=O)C(Oc2ccc([N+](=O)[O-])cc2CN(CC)C(=O)Sc2nnnn2-c2ccccc2)C(=O)C(C)(C)C)c1 (centres unmarked) [CDIR-7] |  |  | -63.9% | 
29 | CSCC(CSC)OC(=O)CCn1nn[nH]c1=S [CIEM-7] | 1.45 | 0.90 |  | 
30 | CCCCCCCCCCCCOC(=O)C(C)OC(=O)c1ccc(Cl)c(NC(=O)C(C(=O)Nc2cc(C(=O)OC(C)C(=O)OCCCCCCCCCCCC)ccc2Cl)n2nnc3cc(Cl)c(Cl)cc32)c1 (centres unmarked) [IDIR-7] |  |  | -20.0% | 
31 | CCCCCCCCCCCCCCCCS(=O)(=O)Nc1cc(CSc2nnnn2CC(=O)OCCC)ccc1Oc1cc(C(N)=O)c(O)c2ccccc12 [IDIR-1] |  |  | -34.5% | 
32 | CCCCOC(=O)CSCCn1nn[nH]c1=S [IEM-7] | 1.75 | 0.95 |  | 
33 | CCn1nn[nH]c1=S [CIEM-5] | 1.23 | 1.00 |  | 
